Test results as given in patent EP1228097B1, “ANTIMICROBIAL ACTIVITY OF THE FIRST CATIONIC CLUSTER OF HUMAN LACTOFERRIN” (priority 1999, dated 2005).

Assays:
[1] = pharmacology of 99mTc-labelled protein/peptides by scintigraphy (clearance, organ uptake, amount at the site of infection); assay type: in vivo, mice; conditions: for mean t1/2 (removal from the circulation): mouse, in vivo, iv; for Uptake by bladder / Uptake by kidneys / Uptake by liver: 1 nmole 99mTc-labelled, mice infected with antibiotic resistant S. aureus
Excerpt: Labeling yields amounted to 88-95%.

[2] = test system: antibiotic resistant S. aureus; assay: experimental thigh muscle infection; assay type: in vivo, mice; conditions: for amount with which maximum effects on the number of viable bacteria were seen: mice infected with antibiotic resistant S. aureus, i.v. injection 24 h after infection, within 24 h after injection; for antibacterial activity in infected mice (result in words): mice with thigh muscle infection with antibiotic resistant S. aureus
Experimental: All animal studies were done in compliance with the LUMC Ethical Committee and Dutch laws related to the conduct of animal experiments. […] In short, specific pathogen-free, male, Swiss mice weighing 20-25 g (Broekman Institute, Someren, The Netherlands) were anaesthetized with a single intraperitoneal injection of 0.1 ml of saline containing 1 mg fluanisone and 0.03 mg fentanyl citrate (Hypnorm, Janssen Pharmaceutics, Tilburg, The Netherlands). Preceding scintigraphy, a subcutaneous injection of 0.1 ml, containing 0.2 mg diazepam (Valium, Hoffmann-La Roche, Mijdrecht. The Netherlands) was administered. Immediately thereafter, 1x10^7 CFU of antibiotic resistant S. aureus or K. pneumoniae in 0.1 ml of saline were injected into the right thigh muscle. […] As a control, mice were injected with 0.2 ml of saline containing BSA or saline without any peptide. […] Next, the infected thigh muscles were removed and, after weighing, homogenized in 4 ml of PBS. Appropriate dilutions of the homogenates were applied onto diagnostic sensitivity test plates (Oxoid), and the number of colonies counted after an overnight culture at 37 °C. Results are expressed as the number of CFUs per gram of infected tissue. All negative cultures were assigned the values of 100 CFU/ml of homogenate, which is the lower limit of detection.

[3] = test system: antibiotic resistant S. aureus; assay: in vitro assay for antibacterial activity (number of viable bacteria); assay type: cell-based, Staphylococcus aureus strain 2141; conditions: for killing of antibiotic resistant S. aureus (result in words): dose-effect studies, proteins in PBS-Tw, synthetic peptides in NaPB-TSB
Experimental: (§1) Listeria monocytogenes strain EGD, Klebsiella pneumoniae (43816), and Escherichia coli O54 were purchased from the American Type Culture Collection (Rockville, MD). Antibiotic resistant S. aureus, K. pneumoniae and E. coli were cultured overnight in nutrient broth (Oxoid, Basingstoke, UK) at 37°C, diluted in tryptase soya broth (TSB, Oxoid) and cultured for an additional 2 h in a shaking waterbath at 37 °C. L. monocytogenes was cultured overnight in brain heart infusion broth (BHI, Oxoid) at 37°C, diluted and cultured for an additional 2 h in a shaking waterbath at 37°C.
(§2) In short, bacteria were washed with phosphate-buffered saline (PBS) (pH 7.4) and diluted to a concentration of approximately 2x10^6 CFU/ml of phosphate-buffered saline (pH 6.0) supplemented with 0.1 % (v/v) Tween-20 (hereafter designated as PBS-Tw). […] At various time intervals (range 0-4 h) after incubation at 37 °C the number of viable bacteria was determined microbiologically. As negative controls, bovine serum albumin (BSA; Sigma) or no peptide were included.

[4] = test system: bacteria; assay: in vitro assay for antibacterial activity, bacteria not specified; assay type: cell-based; conditions: L. monocytogenes, antibiotic resistant S. aureus, K. pneumoniae, E. coli (FIGS. 2A-2D); 7 µM, 1 h at 37 °C
Experimental: as §1
as §2, with “At various time intervals (range 0-4 h) after incubation at 37 °C the number of viable bacteria was determined microbiologically.” left out

[5] = test system: E. coli; assay: in vitro assay for antibacterial activity (number of viable bacteria); assay type: cell-based, Escherichia coli O54; conditions: synthetic peptides in NaPB-TSB, 1 h at 37 °C
Experimental: as §1
[…] […] At various time intervals (range 0-4 h) after incubation at 37 °C the number of viable bacteria was determined microbiologically. As negative controls, bovine serum albumin (BSA; Sigma) or no peptide were included.

[6] = test system: L. monocytogenes; assay: as above; assay type: cell-based, Listeria monocytogenes strain EGD; conditions: for killing of L. monocytogenes (result in words): dose-effect studies, proteins in PBS-Tw, synthetic peptides in NaPB-TSB
Experimental: as §1, §2

[7] = test system: K. pneumoniae; assay: as above; assay type: cell-based, Klebsiella pneumoniae (43816); conditions: proteins in PBS-Tw, synthetic peptides in NaPB-TSB
Experimental: as §1, §2

Substance | mean t1/2 (removal from the circulation) [1] | antibacterial activity in infected mice (result in words) [2] | killing of antibiotic resistant S. aureus (result in words) [3] | bactericidal activity against the various bacteria [4] | killing of E. coli by synthetic peptides (result in words) [5] | killing of L. monocytogenes (result in words) [6] | killing of K. pneumoniae (result in words) [7] | further results
FQWQRNMRKVR [hLF(21-31), Mr 1,548; includes the second cationic domain, reference compound] | ~2 min | less effective than hLF(1-11) |  |  |  |  |  | amount with which maximum effects on the number of viable bacteria were seen [2]: 10 nmol
GRRRRSVQWCA [hLF(1-11), Mr 1,374] | ~9 min | much more effective than hLF(4-11) | considerably (p<0.05) more efficient than hLF(3-11) | displayed bactericidal activity | killed | considerably (p<0.05) more efficient than hLF(3-11) | killed | bactericidal efficiency relative to hLF(21-31) ([3]; antibiotic resistant S. aureus, FIGS. 3A-3C): at least ten times more (p<0.05) efficient than hLF(21-31); Uptake by bladder ([1]; interval 1 min): 10±1.5 % ID; Uptake by kidneys ([1]; interval 1 min): 18±3.8 % ID; Uptake by liver ([1]; interval 1 min): 20±1.6 % ID; Uptake by bladder ([1]; interval 15 min): 11±7.5 % ID; Uptake by kidneys ([1]; interval 15 min): 21±9.3 % ID; Uptake by liver ([1]; interval 15 min): 20±4.9 % ID; Uptake by bladder ([1]; interval 30 min): 21±5.7 % ID; Uptake by kidneys ([1]; interval 30 min): 17±5.7 % ID; Uptake by liver ([1]; interval 30 min): 20±1.6 % ID; Uptake by bladder ([1]; interval 60 min): 22±5.6 % ID; Uptake by kidneys ([1]; interval 60 min): 14±0.4 % ID; Uptake by liver ([1]; interval 60 min): 27±0.6 % ID; amount of radiolabeled peptide at the site of infection ([1]; within the first min after injection of 1 nmole, antibiotic resistant S. aureus-infected mice): 1-1.5 % of injected dose (ID); amount with which maximum effects on the number of viable bacteria were seen [2]: 0.1 nmol; bactericidal efficiency relative to hLF(21-31) ([6]; L. monocytogenes, FIGS. 3A-3C): at least ten times more (p<0.05) efficient than hLF(21-31)
hLF(2-11): residues 2 to 11 inclusively from the N-terminal region of hLF (RRRSVQWCAV; UniProt P02788 21-30, looked up, fragment) |  |  | considerably (p<0.05) more efficient than hLF(3-11) | displayed bactericidal activity | killed | considerably (p<0.05) more efficient than hLF(3-11) | killed | 
hLF(3-11): synthetic fragment of hLF(1-11): residues 3-11 of hLF (RRSVQWCAV; UniProt P02788 22-30, looked up, fragment) |  |  | significantly (p<0.05) more efficient than hLF(4-11) | displayed bactericidal activity | killed | significantly (p<0.05) more efficient than hLF(4-11) | killed | 
hLF(4-11): synthetic fragment of hLF(1-11): residues 4-11 of hLF (RSVQWCAV; UniProt P02788 23-30, looked up, fragment) | approximately 1 min | some antibacterial activity |  | displayed bactericidal activity |  |  |  | 
hLF(5-11): synthetic fragment of hLF(1-11): residues 5-11 of hLF (SVQWCAV; UniProt P02788 24-30, looked up, fragment) |  |  |  | ineffective |  |  |  | 
hLF(6-11): synthetic fragment of hLF(1-11): residues 6-11 of hLF (VQWCAV; UniProt P02788 25-30, looked up, fragment) |  |  |  | ineffective |  |  |  | 
